{
  "source": "patent US20240002369A1",
  "about": "“NOVEL TREATMENTS OF ATTENTION DEFICIT/HYPERACTIVITY DISORDER” (priority 2020, published 2024)",
  "key": {"[1]": {"system": "Lphn3.1 HOM larvae", "experiment": "Motor assay in the zebrafish model of ADHD (Lphn3.1 knock-out larvae)", "assay_type": "in vivo, zebrafish (Danio rerio)", "source_text": "Zebrafish larvae carrying a knock-out of the Latrophilin3 (Lphn3.1) gene were generated by CRISPR-Cas9. Zebrafish were kept in a 14:10 light: dark cycle in 3 or 10 L multi tank constant flow system (Aquatic Habitats, Apopka, FL, USA). For behavioral analysis a total number of 881, 6 days-post fertilization (dpf) embryos carrying a homozygous knock-out of the Lphn3.1 gene were used in the study. Adult zebrafish with a homozygous knock-out of the Lphn3.1 gene and adult zebrafish with a wild-type Lphn3.1 gene were fed three times a day on a variable diet of TetraMin flakes (Tetra Holding GmbH, Melle, Germany) and live Artemia. […]\nFollowing a 24 hour acclimation period, behavioral recordings were made. Locomotor activity was recorded between […] and 6.00 pm at 6 dpf during alternating light and dark conditions, presented in 30-minute intervals. For this period, average distance moved (mm) by the larvae was calculated as the mean of the total distance swum during five separate 30-minute intervals immediately after transition of light conditions. […]\nData was obtained using EthoVision XT (Version Nov. 5, 2016, Noldus) and exported to Microsoft Excel for analysis. […] For analysis of Lphn 3.1 larvae treated with moxonidine statistical differences were evaluated using one-way ANOVA with Dunnett two-sided post hoc analysis. […]"}, "[2]": {"system": "Lphn3.1 WT larvae", "experiment": "Motor assay in wild-type zebrafish larvae", "assay_type": "in vivo, zebrafish (Danio rerio)"}, "[3]": {"system": "scopolamine-induced cognitive dysfunction", "experiment": "T-maze alternation test, scopolamine-induced cognitive dysfunction model", "assay_type": "in vivo, Male CD-1 mice", "source_text": "Male CD-1 mice aged 4-5 weeks were allocated to a T-maze to perform the T-maze alternation test as described by Andriambeloson et al., 2014 (Pharma Res Per, 2 (4), 2014, e00048, included herein by reference). In brief, each mouse was placed in a T-maze consisting of a main stem and two arms. The experiment consisted of one “forced-choice” trial and 14 “free-choice” trials to evaluate the number of spontaneous alternations."}, "[4]": {"system": "Lphn3.1 HOM larvae", "experiment": "Sleep behavior in freely moving zebrafish larvae during lights-off period", "details": "for SleepDuration (sleep bout duration) Mean Difference (I − J): average length of sleep bouts; for WakeDuration (wake bout duration) Mean Difference (I − J): average length of wake bouts; for Velocity (during sleep) Mean Difference (I − J): average velocity throughout the night time; for SleepRatio Mean Difference (I − J): share of total night time asleep; for SleepFragmentation Mean Difference (I − J): transitions between sleep and wake bouts per hour, lights-off 22:00-08:00", "experimental": "This assay provides a measure of muscle weakness and/or motor coordination, which co-occurs with certain sleep states, but can also occur independently of sleep. […] Thus, to evaluate the effect of moxonidine on sleep behavior, the sleep behavior in freely moving zebrafish (Lphn3.1 HOM larvae) following treatment with moxonidine, a comparator compound, or negative control (i.e. saline or vehicle control) was assessed in line with the criteria described by Levitas-Djerbi et al., (Curr Opin Neurobiol. 2017; 44:89-93) and Sorribes et al., (Front Neural Circuits. 2013 Nov. 13; 7:178).\nIn brief, sleep behavior was recorded in a 96-well plate and analysed during the lights-off period (22:00-08:00). First, all behavior was dichotomized into 1-s bins of movement or non-movement. […] All activity that was slower than that threshold was computed as non-movement. Thus, rendering a dichotomized record of the behavior in either movement or non-movement. Next, the dichotomized record was transformed into bins of sleep and wake. Following previously established sleep criteria in adults, and adapted to larval fish (Yokogawa et al., PLoS Biol. 2007; 5(10):2379-97, Sorribes et al., Front Neural Circuits. 2013; 7:178, and Sigurgeirsson et al., Behav Brain Res. 2013; 256:377-90), six or more consecutive 1-s bins of non-movement were counted as sleep and all else was counted as wake. That is, the seventh second and above were classified as sleep; all other bouts were classified as wake. Once the number of sleep and wake bouts was calculated, five different sleep parameters were assessed (i.e. sleep fragmentation, sleep ratio, velocity during sleep, wake bout duration(s), and sleep bout duration(s)). Sleep fragmentation was defined as the number of transitions between sleep and wake bouts per hour. Sleep ratio was calculated as the percentage of total night time that the fish was considered asleep. Velocity during sleep (mm/s) was defined as the average velocity throughout the night time. Wake bout duration(s) was defined as the average length of wake bouts. Sleep bout duration(s) was defined as the average length of sleep bouts."}, "[5]": {"details": "Tan et al., Proc Natl Acad Sci USA 2002; cited from earlier work"}},
  "note": "Entries after “also recorded” stand apart in the source; their conditions may differ. Marks after values point to notes of the source that are not given here.",
  "data": [
    {"compound": "COc1nc(C)nc(Cl)c1NC1=NCCN1", "note": "[Moxonidine, moxonidine]", "values": [
      {"measurement": "average distance moved over the five lights-on phases", "setting": "[1]; 1 μM, 10 μM or 30 μM vs vehicle control (DMSO), FIG. 3", "value": "differed significantly from vehicle control and untreated larvae; also recorded: Statistically significant differences"},
      {"measurement": "behavioral deficits (24 hour velocity spectrogram)", "setting": "[1]; 10 μM, Lphn3.1 HOM larvae, FIG. 5", "value": "rectifies the behavioral deficits"},
      {"measurement": "velocity in wild-type larvae", "setting": "[2]", "value": "increase velocity"},
      {"measurement": "behavioral parameters (24 hour velocity spectrogram)", "setting": "[2]; 10 μM, FIG. 5", "value": "no effect on behavioral parameters"},
      {"measurement": "spontaneous alternation, dose dependence", "setting": "[3]; 0.1 mg/kg, 0.3 mg/kg and 1 mg/kg, FIG. 4", "value": "dose-dependent increase in spontaneous alternation"},
      {"measurement": "spontaneous alternation", "setting": "[3]; 0.3 mg/kg vs mice exposed to scopolamine, p<0.001", "value": "significant increased spontaneous alternation"},
      {"measurement": "spontaneous alternation", "setting": "[3]; 1 mg/kg vs mice exposed to scopolamine, p<0.0001", "value": "significant increased spontaneous alternation"},
      {"measurement": "SleepDuration (sleep bout duration) Mean Difference (I − J)", "setting": "[4]; 1 uM vs HOM - DMSO", "value": -1.586, "unit": "s"},
      {"measurement": "WakeDuration (wake bout duration) Mean Difference (I − J)", "setting": "[4]; 1 uM vs HOM - DMSO", "value": 0.8031, "unit": "s"},
      {"measurement": "Velocity (during sleep) Mean Difference (I − J)", "setting": "[4]; 1 uM vs HOM - DMSO", "value": "−0.02492", "unit": "mm/s"},
      {"measurement": "SleepRatio Mean Difference (I − J)", "setting": "[4]; 1 uM vs HOM - DMSO", "value": "−0.04916"},
      {"measurement": "SleepFragmentation Mean Difference (I − J)", "setting": "[4]; 1 uM vs HOM - DMSO", "value": 3.2294},
      {"measurement": "SleepDuration (sleep bout duration) Mean Difference (I − J)", "setting": "[4]; 10 uM vs HOM - DMSO", "value": -1.0974, "unit": "s"},
      {"measurement": "WakeDuration (wake bout duration) Mean Difference (I − J)", "setting": "[4]; 10 uM vs HOM - DMSO", "value": -0.00334, "unit": "s"},
      {"measurement": "Velocity (during sleep) Mean Difference (I − J)", "setting": "[4]; 10 uM vs HOM - DMSO", "value": "−.07640* mm/s"},
      {"measurement": "SleepRatio Mean Difference (I − J)", "setting": "[4]; 10 uM vs HOM - DMSO", "value": "−0.02153"},
      {"measurement": "SleepFragmentation Mean Difference (I − J)", "setting": "[4]; 10 uM vs HOM - DMSO", "value": 5.727},
      {"measurement": "SleepDuration (sleep bout duration) Mean Difference (I − J)", "setting": "[4]; 30 uM vs HOM - DMSO", "value": -1.57, "unit": "s"},
      {"measurement": "WakeDuration (wake bout duration) Mean Difference (I − J)", "setting": "[4]; 30 uM vs HOM - DMSO", "value": 3.687, "unit": "s"},
      {"measurement": "Velocity (during sleep) Mean Difference (I − J)", "setting": "[4]; 30 uM vs HOM - DMSO", "value": "−.05041* mm/s"},
      {"measurement": "SleepRatio Mean Difference (I − J)", "setting": "[4]; 30 uM vs HOM - DMSO", "value": "−0.06247"},
      {"measurement": "SleepFragmentation Mean Difference (I − J)", "setting": "[4]; 30 uM vs HOM - DMSO", "value": "−1.7339"},
      {"measurement": "comparison of all sleep parameters (summary)", "setting": "[4]; 1, 10, 30 μM, FIG. 6A-6D", "value": "only a slight increase in velocity"},
      {"measurement": "sedation in the rotarod assay", "setting": "[5]", "value": "less sedation compared to clonidine and brimonidine"}
    ]}
  ]
}
